# Results published in patent publication US8927500B2, “Peptidomimetic macrocycles” (Aileron Therapeutics, Inc., priority 2012, dated 2015).
# Where a SMILES comes first, the peptide text is derived from it. Bridges are numbered along the chain shown (N, C = ends). [ ]: non-standard residue; d: D form. Trp(6-Cl) = N[C@@H](Cc1c[nH]c2cc(Cl)ccc12)C(=O)O; R8 = C=CCCCCCC[C@@](C)(N)C(=O)O; hLeu = CC(C)CC[C@H](N)C(=O)O; S5 = C=CCCC[C@](C)(N)C(=O)O
# Key:
# MDM2 = MDM2 (Homo sapiens, UniProt Q00987); assay: Competitive fluorescence polarization assay for MDM2; type: binding; details: competitive FP assay, MDM2; for IC50: read-out: IC50 (MDM2); for Ki: read-out: Ki (MDM2)
# MDMX = target: T1, MDMX (Homo sapiens, UniProt O15151); assay: Competitive fluorescence polarization assay for MDMX; type: binding; details: competitive FP assay; for IC50: read-out: IC50 (MDMX); for Ki: read-out: Ki (MDMX)
# T1 sequence (O15151 1-125): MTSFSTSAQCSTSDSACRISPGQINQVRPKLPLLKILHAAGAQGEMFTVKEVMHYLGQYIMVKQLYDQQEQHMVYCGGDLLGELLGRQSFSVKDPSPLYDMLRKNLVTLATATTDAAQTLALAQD
# Caspase 3 = Caspase 3 detection assay in SJSA1 cells; type: cell-based; details: 48 h, Caspase 3 activation over DMSO-treated cells; for caspase 0.3 uM: 0.3 uM peptide; for caspase 3 uM: 3 uM peptide; for caspase 10 uM: 10 uM peptide; for caspase 30 uM: 30 uM peptide
# SJSA-1 cells = assay: Cell lysis by peptidomimetic macrocycles (LDH release); type: cell-based; details: 1 h at 37C
# MDM2, sequence (Q00987 1-125): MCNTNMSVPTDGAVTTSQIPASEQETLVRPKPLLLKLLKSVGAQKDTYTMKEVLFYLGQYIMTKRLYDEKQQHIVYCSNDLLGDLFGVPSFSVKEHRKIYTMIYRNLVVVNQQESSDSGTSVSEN
SMILES,IC50 (MDM2) [µM],Ki (MDM2) [µM],IC50 (MDMX) [µM],Ki (MDMX) [µM],caspase 0.3 uM (Caspase 3),caspase 3 uM (Caspase 3),caspase 10 uM (Caspase 3),caspase 30 uM (Caspase 3),6.25 uM % Lysed cells (1 h LDH) (SJSA-1 cells) [%],25 uM % Lysed cells (1 h LDH) (SJSA-1 cells) [%],50 uM % Lysed cells (1 h LDH) (SJSA-1 cells) [%]
"CC(=O)N[C@@H](CC(C)C)C(=O)N[C@H](C(=O)N[C@@H](Cc1ccccc1)C(=O)N[C@]1(C)CCCCCCC=CCCC[C@@](C)(C(=O)N[C@@H](C)C(=O)N[C@@H](C)C(=O)N[C@@H](Cc2ccccc2)C(=O)N[C@H](C)C(N)=O)NC(=O)[C@H](CC(C)C)NC(=O)[C@H](CCC(N)=O)NC(=O)[C@H](C)NC(=O)[C@H](Cc2c[nH]c3ccccc23)NC(=O)[C@H](Cc2ccc(O)cc2)NC(=O)[C@H](CCC(=O)O)NC1=O)[C@@H](C)O (single isomer, unassigned) [compound 218]",< 0.01,< 0.01,0.1 to 1,0.01 to 0.1,1,2,8,18,0,−4,1
CC(=O)N[C@@H](CC(C)C)C(=O)N[C@H](C(=O)N[C@@H](Cc1ccccc1)C(=O)N[C@]1(C)CCCCCC/C=C\CCC[C@@](C)(C(=O)N[C@@H](CO)C(=O)N[C@@H](C)C(=O)N[C@@H](C)C(N)=O)NC(=O)[C@H](CCC(C)C)NC(=O)[C@H](CCC(N)=O)NC(=O)[C@H](C)NC(=O)[C@H](Cc2c[nH]c3ccccc23)NC(=O)[C@H](Cc2ccc(O)cc2)NC(=O)[C@H](C)NC1=O)[C@@H](C)O [compound 114] (Ac-LTF[R8]AYWAQ[hLeu][S5]SAA-NH2; staple (Z) 4-11),0.01 to 0.1,< 0.01,0.1 to 1,0.01 to 0.1,1,6,28,34,3,4,9
"CC(=O)N[C@@H](CC(C)C)C(=O)N[C@H](C(=O)N[C@@H](Cc1ccccc1)C(=O)N[C@]1(C)CCCCCCC=CCCC[C@@](C)(C(=O)N[C@@H](CO)C(=O)N[C@H](C(=O)N[C@@H](C)C(N)=O)C(C)C)NC(=O)[C@H](CC(C)C)NC(=O)[C@H](CCC(N)=O)NC(=O)[C@H](C)NC(=O)[C@H](Cc2c[nH]c3ccccc23)NC(=O)[C@H](Cc2ccc(O)cc2)NC(=O)[C@H](C(C)C)NC1=O)[C@@H](C)O (single isomer, unassigned) [compound 139]",< 0.01,< 0.01,0.1 to 1,0.01 to 0.1,1,2,9,18,−2,−1,−1
CC(=O)N[C@@H](CCC(=O)O)C(=O)N[C@H](C(=O)N[C@@H](Cc1ccccc1)C(=O)N[C@]1(C)CCCCCCC=CCCC[C@@](C)(C(=O)N[C@@H](CO)C(=O)N[C@H](C(=O)N[C@@H](C)C(N)=O)C(C)C)NC(=O)[C@H](CC(C)C)NC(=O)[C@H](CCC(N)=O)NC(=O)[C@H](C)NC(=O)[C@H](Cc2c[nH]c3ccccc23)NC(=O)[C@H](Cc2ccc(O)cc2)NC(=O)[C@H](C(C)C)NC1=O)[C@@H](C)O [compound 126] (Ac-ETF[R8]VYWAQL[S5]SVA-NH2; staple 4-11),< 0.01,< 0.01,0.1 to 1,0.01 to 0.1,1,1,6,30,1,1,1

# Now from value to molecule, other results behind:
IC50 (MDM2) [µM],Ki (MDM2) [µM],IC50 (MDMX) [µM],Ki (MDMX) [µM],SMILES,caspase 0.3 uM (Caspase 3),caspase 3 uM (Caspase 3),caspase 10 uM (Caspase 3),caspase 30 uM (Caspase 3),6.25 uM % Lysed cells (1 h LDH) (SJSA-1 cells) [%],25 uM % Lysed cells (1 h LDH) (SJSA-1 cells) [%],50 uM % Lysed cells (1 h LDH) (SJSA-1 cells) [%]
< 0.01,< 0.01,0.01 to 0.1,0.01 to 0.1,"CC(=O)N[C@@H](CC(C)C)C(=O)N[C@H](C(=O)N[C@@H](Cc1ccccc1)C(=O)N[C@]1(C)CCCCCCC=CCCC[C@@](C)(C(=O)N[C@@H](C)C(=O)N[C@@H](C)C(=O)N[C@H](C(=O)N[C@H](C)C(N)=O)C(C)C)NC(=O)[C@H](CC(C)C)NC(=O)[C@H](CCC(N)=O)NC(=O)[C@H](C)NC(=O)[C@H](Cc2c[nH]c3ccccc23)NC(=O)[C@H](Cc2ccc(O)cc2)NC(=O)[C@H](CCC(=O)O)NC1=O)[C@@H](C)O (single isomer, unassigned) [compound 221]",1,3,6,12,3,3,11
< 0.01,< 0.01,0.1 to 1,0.01 to 0.1,CC(=O)N[C@@H](CC(C)C)C(=O)N[C@H](C(=O)N[C@@H](Cc1ccccc1)C(=O)N[C@]1(C)CCCCCC/C=C/CCC[C@@](C)(C(=O)N[C@@H](CO)C(=O)N[C@@H](C)C(=O)N[C@@H](C)C(N)=O)NC(=O)[C@H](CC(C)C)NC(=O)[C@H](CCC(N)=O)NC(=O)[C@H](C)NC(=O)[C@H](Cc2c[nH]c3cc(Cl)ccc23)NC(=O)[C@H](Cc2ccc(O)cc2)NC(=O)[C@H](C)NC1=O)[C@@H](C)O [compound 99] (Ac-LTF[R8]AY[Trp(6-Cl)]AQL[S5]SAA-NH2; staple (E) 4-11),1,7,31,33,1.5,2,3.5
< 0.01,< 0.01,0.1 to 1,0.01 to 0.1,CC(=O)N[C@@H](CCC(=O)O)C(=O)N[C@H](C(=O)N[C@@H](Cc1ccccc1)C(=O)N[C@]1(C)CCCCCCC=CCCC[C@@](C)(C(=O)N[C@@H](CO)C(=O)N[C@@H](C)C(=O)N[C@@H](C)C(N)=O)NC(=O)[C@H](CC(C)C)NC(=O)[C@H](CCC(N)=O)NC(=O)[C@H](C)NC(=O)[C@H](Cc2c[nH]c3ccccc23)NC(=O)[C@H](Cc2ccc(O)cc2)NC(=O)[C@H](CCC(=O)O)NC1=O)[C@@H](C)O [compound 161] (Ac-ETF[R8]EYWAQL[S5]SAA-NH2; staple 4-11),2,8,14,22,1,−1,0
0.1 to 1,0.01 to 0.1,0.1 to 1,0.01 to 0.1,CC[C@H](C)[C@H](NC(=O)[C@H](C)NC(=O)[C@H](CO)NC(=O)[C@]1(C)CCCC=CCCCCCC[C@@](C)(NC(=O)[C@H](Cc2ccccc2)NC(=O)[C@@H](NC(=O)[C@H](CC(C)C)NC(C)=O)[C@@H](C)O)C(=O)N[C@@H](C)C(=O)N[C@@H](Cc2ccc(O)cc2)C(=O)N[C@@H](Cc2c[nH]c3ccccc23)C(=O)N[C@@H](C)C(=O)N[C@@H](CCC(N)=O)C(=O)N[C@@H](CC(C)C)C(=O)N1)C(N)=O [compound 8] (Ac-LTF[R8]AYWAQL[S5]SAI-NH2; staple 4-11),–,1,19,25,−1,1,1
